PMC10101232, “Population pharmacokinetics of vancomycin in very low birth weight neonates” (Frontiers in Pediatrics, 2023)
Read-outs that look alike come from different tables or passages of the source.

Experiments:
[1] = model from 10 VLBW neonates, 10 mg/kg every 8 h, ref Kato et al. [16]; cited from earlier work
Text: The most commonly used tertiary dosing references present vancomycin dosing recommendations for neonates considering only one or two of these variables. For example, Micromedex NeoFax recommends dosing based on a combination of PMA and PNA, pediatric and neonatal Lexicomp recommends two different dosing strategies, one based on a combination of PMA and PNA and the other based on a combination of GA and Scr (Table 1). As a result, the daily doses can differ widely by up to 50% between these studies. Studies have reported that the probability of achieving vancomycin therapeutic targets in neonat ... || To date, only two studies with very small sample size have evaluated the optimal vancomycin dosing in VLBW neonates ([16], [17]). Kato et al. ([16]) recommended a vancomycin dose of 10 mg/kg every 8 h as the initial dosage regimen for vancomycin in VLBW neonates. This model predicted vancomycin therapeutic target achievement in 86.7% of neonates. However, they developed their model based on data from only 10 VLBW neonates, and the simulations were not divided into categories according to Scr and PMA. The major difference between our findings and the Kato et al. model is that for most groups, e ...

[2] = Vancomycin population pharmacokinetic model (one-compartment, Monolix) from serum concentrations in VLBW neonates
Protocol: Data were retrieved for VLBW neonates (0–30 days old) who were admitted to the NICU and received vancomycin for proven or suspected MRSA or MRCONS infections. Patients were included if they received vancomycin for more than 48 h and had at least one vancomycin serum trough concentration measurement in a steady state. The collected data included PNA, PMA, weight, Scr, vancomycin dose, frequency and concentrations. […] Subsequent dose adjustments were guided by the vancomycin trough concentrations. In King Saud University Medical City, both vancomycin peak and trough concentrations were obtained for therapeutic drug monitoring. In all other hospitals, the practice was to collect trough concentrations only. Peak samples were collected 1 h after the end of infusions, and trough concentrations were collected 30 min before the next dose in a steady state. Exclusion criteria were: renal failure, receiving hemodialysis, missing dosing information and those sampled before the steady state were excluded.
One hospital used a chemiluminescent microparticle immunoassay with an Architect i4000SR immunoassay analyzer (Abbott), two hospitals used the kinetic interaction of microparticles in solution (KIMS) with a Cobas c system (Roche/Hitachi), and three hospitals used the homogeneous particle-enhanced turbidimetric inhibition immunoassay (PETINIA) with an Alinity c analyzer (Abbott). The assay range for the Architect immunoassay is from 0.5 to 83 µg/ml, the range for the KIMS assay is 4–80 µg/ml, and the range for the PETINIA is 1.4–100 µg/ml. For the Scr assays, four centers used the Jaffe method, and two centers used the enzymatic method.
We split the data randomly into the training (70%) and validation (30%) data sets. […] Pharmacokinetic modeling was performed using the Monolix software (2020R1) with the stochastic approximation expectation maximization algorithm.
First, we developed a structural model for vancomycin. This included testing one- and two-compartment models with linear and nonlinear elimination. For the between-subject variability in pharmacokinetic parameters, we used the following lognormal distribution: pi=p.exp⁡(ηi), where pi is the individual pharmacokinetic estimate for the i^th individual, p is the median value of the pharmacokinetic parameter, and ηi is the standard deviation for the i^th individual with a mean of 0 and variance ω^2. For residual unexplained variability, we tested different statistical models, including the constant, proportional, and combined error models. As different assays were used for vancomycin, we tested having different residual variability models accordingly.
After we developed the base model, we evaluated the effect of covariates on pharmacokinetic parameters. […]

[3] = cited from earlier work; for risk of nephrotoxicity: adults, ref [30]

CN[C@H](CC(C)C)C(=O)N[C@H]1C(=O)N[C@@H](CC(N)=O)C(=O)N[C@H]2C(=O)N[C@H]3C(=O)N[C@H](C(=O)N[C@H](C(=O)O)c4cc(O)cc(O)c4-c4cc3ccc4O)[C@H](O)c3ccc(c(Cl)c3)Oc3cc2cc(c3O[C@@H]2O[C@H](CO)[C@@H](O)[C@H](O)[C@H]2O[C@H]2C[C@](C)(N)[C@H](O)[C@H](C)O2)Oc2ccc(cc2Cl)[C@H]1O [vancomycin]
predicted vancomycin therapeutic target achievement [1]: 86.7%
typical Cl value ([2]; VLBW neonate weighing 0.93 kg, PMA 26 weeks, Scr 0.6 mg/dl): 0.09 L/h
TMA50 (PMA at which CL is 50% of the mature value) ([2]; final model): 26.3 weeks
Cl (total body clearance), estimate ([2]; final population PK model, VLBW neonates, training data set N = 162): 0.09 L/h
V (volume of distribution), estimate ([2]; final population PK model, VLBW neonates, training data set N = 162, typical value at 0.93 kg): 0.81 L
probable vancomycin-related nephrotoxicity, neonates affected ([3]; VLBW neonates, ref Madigan et al. [41]): two out of 57
risk of nephrotoxicity ([3]; troughs >20 µg/ml): approximately 30%
risk of nephrotoxicity ([3]; troughs between 15 and 20 µg/ml): approximately 15%
nephrotoxicity, patients ([3]; infants, ref Viel-Thériault et al. [42]): 6%
subjects who developed nephrotoxicity ([3]; neonatal intensive care unit, ref Bhargava et al. [39]): three out of 110
AUC0−24 cutoff as a predictor of nephrotoxicity ([3]; neonates, ref Tang et al. [43]): > 485 µg·h/mL
neonates who developed nephrotoxicity ([3]; neonates, ref Tang et al. [43]): seven out of 182
